For assay [1], the system named is 5-HT concentrations. Kind of assay: Brain microdialysis, acute oral administration; 5-HT in perfusate by HPLC with electrochemical detection. The format is in vivo. To be noted: brain dialysate. As for the experimental part:
(§1) Animals with dialysis probes inserted in brain regions were placed in the dialysis apparatus and the probes perfused with artificial cerebrospinal fluid. Samples of perfusate were collected every 20 minutes after an initial 30 minute washout period. Basal samples were collected for 2 hours before administration of drug or vehicle by the oral route. Further samples were collected for up to 4 hours post drug administration. Samples were analysed for 5-HT by HPLC with electrochemical detection.
Data was expressed as a percentage of a pre-injection control, obtained by averaging the last three samples prior to drug/vehicle administration. Transformed data (natural log of percentages) was analysed by ANOVA with repeated measures.

Assay [2] deals with 5-HT concentrations. Put plainly: Brain microdialysis after chronic (21 day) administration; 5-HT in perfusate. To be noted: 10 mg/kg, percentage increase over vehicle treated controls. The format is in vivo. As for the experimental part: as §1
The method differed from that for acute administration in that animals were treated with fluoxetine or vehicle for 21 days prior to placement in the dialysis apparatus. The subsequent manipulations were as described above. The 5-HT concentration in the treated group was expressed as the percentage increase over vehicle treated controls.

Data on two molecules can be found in patent US20030212109A1, “Pharmaceutical compositions and their use” (priority 2000, published 2003).

Structures are written as SMILES.

Take `CC1(C)C(=O)N(CCN2CCC(C(=O)c3ccc(F)cc3)CC2)c2ccccc21.Cl` [Compound of formula (I), 1-[2-[4-(4-fluorobenzoyl)-1-piperidinyl]ethyl]-1,3-dihydro-3,3-dimethyl-2H-indol-2-one, monohydrochloride]: the “% increase in 5-HT concentrations” value with 5-HT concentrations [1] (10 mg/kg, oral) is listed as 110%.
For `CNCCC(Oc1ccc(C(F)(F)F)cc1)c1ccccc1` (stereo not drawn) [Fluoxetine, N-methyl-3-(p-trifluoromethylphenoxy)-3-phenylpropylamine], the “% increase in 5-HT concentrations” value with 5-HT concentrations [1] (10 or 20 mg/kg, oral (maximum possible response)) is 99%; with 5-HT concentrations [2], 184%.
